{
  "source": "patent US12371454B2",
  "about": "“Cyclic peptide compound having Kras inhibitory action” (priority 2019, dated 2025)",
  "note": "Starred links: 1 amine or outer side, 2 acyl side, 3 side chain; linkers in the order of their positions; H or OH if unused. Positions of bridges follow the written chain, without caps; N, C: chain ends. Non-standard residues stand in square brackets, D forms with d. Residues, ends and D or L forms follow the SMILES beside them. *: point of attachment. hPhe(3-Cl-4-CF3) = N[C@@H](CCc1ccc(C(F)(F)F)c(Cl)c1)C(=O)O; NMePhe(4-Me) = CN[C@@H](Cc1ccc(C)cc1)C(=O)O; NMedβ3hAla = C[C@H](CC(=O)[*:2])N(C)[*:1]; NMeGly(cPent) = CN[C@H](C(=O)O)C1CCCC1; NMeCha = CN[C@@H](CC1CCCCC1)C(=O)O; NMeF = CN[C@@H](Cc1ccccc1)C(=O)O; NMeI = CC[C@H](C)[C@H](NC)C(=O)O; NMeD = CN[C@@H](CC(=O)O)C(=O)O; NMeL = CN[C@@H](CC(C)C)C(=O)O; NMeNle = CCCC[C@H](NC)C(=O)O; NMeNva = CCC[C@H](NC)C(=O)O; NMeV = CN[C@H](C(=O)O)C(C)C; d(β3hA) = C[C@@H](N)CC(=O)O; NMeAbu = CC[C@H](NC)C(=O)O; NMeS = CN[C@@H](CO)C(=O)O; NMeA = CN[C@@H](C)C(=O)O; Piperidide = C1CCN(*)CC1; Ac5c = NC1(C(=O)O)CCCC1; Aze = O=C(O)[C@@H]1CCN1; Sar = CNCC(=O)O; Propyl = CCC*",
  "data": [
    {"test_system": "Human pancreatic cancer cell line AsPC-1", "assay": "Measurement of AsPC-1 cell growth inhibition (AsPC-1 CGI)", "type": "cell-based", "conditions": "96 h", "in_short": "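AsPC-1 cells in 15% FBS RPMI-1640 were exposed to test compound for 96 hours at 37° C, with CellTiter-Glo as endpoint.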", "units": {"IC50": "µM"}, "values": [
      {"compound": "CC[C@H](C)[C@@H]1NC(=O)[C@H](C)N(C)C(=O)C[C@@H](C)NC(=O)[C@H](C2CCCC2)N(C)C(=O)C2(CCCC2)NC(=O)[C@@H]2CCCN2C(=O)[C@H](CCc2ccc(C(F)(F)F)c(Cl)c2)NC(=O)CN(C)C(=O)[C@H](Cc2ccc(C)cc2)N(C)C(=O)[C@@H]2CCN2C(=O)[C@H](C)N(C)C1=O", "note": "[Compound 1514] (cyclo([Ac5c][NMeGly(cPent)][d(β3hA)][NMeA]I[NMeA][Aze][NMePhe(4-Me)][Sar][hPhe(3-Cl-4-CF3)]P))", "IC50": "0.1 to 0.5"},
      {"compound": "CC[C@H](C)[C@@H]1NC(=O)[C@H](CC(C)C)N(C)C(=O)C[C@@H](C(=O)N2CCCCC2)N(C)C(=O)[C@H](C(C)C)N(C)C(=O)C2(CCCC2)NC(=O)[C@@H]2CCCN2C(=O)[C@H](CCc2ccc(C(F)(F)F)c(Cl)c2)NC(=O)CN(C)C(=O)[C@H](CC2CCCCC2)N(C)C(=O)[C@@H]2CCN2C(=O)[C@H](Cc2ccccc2)N(C)C1=O", "note": "[Compound 1561] ([NMeL]I[NMeF][Aze][NMeCha][Sar][hPhe(3-Cl-4-CF3)]P[Ac5c][NMeV][NMeD]-Piperidide; lactam N-11)", "IC50": "0.1 to 0.5"},
      {"compound": "CCC[C@H]1C(=O)N[C@@H]([C@@H](C)CC)C(=O)N(C)[C@@H](C)C(=O)N2CC[C@H]2C(=O)N(C)[C@@H](CC2CCCCC2)C(=O)N(C)CC(=O)N[C@@H](CCc2ccc(C(F)(F)F)c(Cl)c2)C(=O)N2CCC[C@H]2C(=O)NC2(CCCC2)C(=O)N(C)[C@@H](C(C)C)C(=O)N[C@H](C)CC(=O)N1C", "note": "[Compound 1564] (cyclo([Ac5c][NMeV][d(β3hA)][NMeNva]I[NMeA][Aze][NMeCha][Sar][hPhe(3-Cl-4-CF3)]P))", "IC50": "0.1 to 0.5"},
      {"compound": "CC[C@H](C)[C@@H]1NC(=O)[C@H](CC(C)C)N(C)C(=O)C[C@@H](C(=O)N2CCCCC2)N(C)C(=O)[C@H](C(C)C)N(C)C(=O)C2(CCCC2)NC(=O)[C@@H]2CCCN2C(=O)[C@H](CCc2ccc(C(F)(F)F)c(Cl)c2)NC(=O)CN(C)C(=O)[C@H](CC2CCCCC2)N(C)C(=O)[C@@H]2CCN2C(=O)[C@H](CC)N(C)C1=O", "note": "[Compound 1569] ([NMeL]I[NMeAbu][Aze][NMeCha][Sar][hPhe(3-Cl-4-CF3)]P[Ac5c][NMeV][NMeD]-Piperidide; lactam N-11)", "IC50": "0.1 to 0.5"},
      {"compound": "CCCC[C@H]1C(=O)N2CC[C@H]2C(=O)N(C)[C@@H](CC2CCCCC2)C(=O)N(C)CC(=O)N[C@@H](CCc2ccc(C(F)(F)F)c(Cl)c2)C(=O)N2CCC[C@H]2C(=O)NC2(CCCC2)C(=O)N(C)[C@@H](C(C)C)C(=O)N(C)[C@H](C(=O)N2CCCCC2)CC(=O)N(C)[C@@H](CC(C)C)C(=O)N[C@@H]([C@@H](C)CC)C(=O)N1C", "note": "[Compound 1596] ([NMeL]I[NMeNle][Aze][NMeCha][Sar][hPhe(3-Cl-4-CF3)]P[Ac5c][NMeV][NMeD]-Piperidide; lactam N-11)", "IC50": "0.1 to 0.5"},
      {"compound": "CCC[C@H]1C(=O)N2CC[C@H]2C(=O)N(C)[C@@H](CC2CCCCC2)C(=O)N(C)CC(=O)N[C@@H](CCc2ccc(C(F)(F)F)c(Cl)c2)C(=O)N2CCC[C@H]2C(=O)NC2(CCCC2)C(=O)N(C)[C@@H](C(C)C)C(=O)N(C)[C@H](C(=O)N2CCCCC2)CC(=O)N(C)[C@@H](CC(C)C)C(=O)N[C@@H]([C@@H](C)CC)C(=O)N1C", "note": "[Compound 1601] ([NMeL]I[NMeNva][Aze][NMeCha][Sar][hPhe(3-Cl-4-CF3)]P[Ac5c][NMeV][NMeD]-Piperidide; lactam N-11)", "IC50": "0.1 to 0.5"},
      {"compound": "CCCC[C@H]1C(=O)N[C@@H]([C@@H](C)CC)C(=O)N(C)[C@@H](C)C(=O)N2CC[C@H]2C(=O)N(C)[C@@H](CC2CCCCC2)C(=O)N(C)CC(=O)N[C@@H](CCc2ccc(C(F)(F)F)c(Cl)c2)C(=O)N2CCC[C@H]2C(=O)NC2(CCCC2)C(=O)N(C)[C@@H](C(C)C)C(=O)N(C)[C@H](C(=O)N2CCCCC2)CC(=O)N1C", "note": "[Compound 1616] ([NMeNle]I[NMeA][Aze][NMeCha][Sar][hPhe(3-Cl-4-CF3)]P[Ac5c][NMeV][NMeD]-Piperidide; lactam N-11)", "IC50": "0.1 to 0.5"},
      {"compound": "CC[C@H](C)[C@@H]1NC(=O)[C@H](CC)N(C)C(=O)C[C@@H](C(=O)N2CCCCC2)N(C)C(=O)[C@H](C(C)C)N(C)C(=O)C2(CCCC2)NC(=O)[C@@H]2CCCN2C(=O)[C@H](CCc2ccc(C(F)(F)F)c(Cl)c2)NC(=O)CN(C)C(=O)[C@H](CC2CCCCC2)N(C)C(=O)[C@@H]2CCN2C(=O)[C@H](C)N(C)C1=O", "note": "[Compound 1638] ([NMeAbu]I[NMeA][Aze][NMeCha][Sar][hPhe(3-Cl-4-CF3)]P[Ac5c][NMeV][NMeD]-Piperidide; lactam N-11)", "IC50": "0.1 to 0.5"},
      {"compound": "CCC[C@H]1C(=O)N[C@@H]([C@@H](C)CC)C(=O)N(C)[C@@H](C)C(=O)N2CC[C@H]2C(=O)N(C)[C@@H](CC2CCCCC2)C(=O)N(C)CC(=O)N[C@@H](CCc2ccc(C(F)(F)F)c(Cl)c2)C(=O)N2CCC[C@H]2C(=O)NC2(CCCC2)C(=O)N(C)[C@@H](C(C)C)C(=O)N(C)[C@H](C(=O)N2CCCCC2)CC(=O)N1C", "note": "[Compound 1639] ([NMeNva]I[NMeA][Aze][NMeCha][Sar][hPhe(3-Cl-4-CF3)]P[Ac5c][NMeV][NMeD]-Piperidide; lactam N-11)", "IC50": "0.1 to 0.5"},
      {"compound": "CCCOC[C@H]1C(=O)N(C)CC(=O)N[C@@H](CCc2ccc(C(F)(F)F)c(Cl)c2)C(=O)N2CCC[C@H]2C(=O)NC2(CCCC2)C(=O)N(C)[C@@H](C(C)C)C(=O)N(C)[C@H](C(=O)N2CCCCC2)CC(=O)N(C)[C@@H](CC(C)C)C(=O)N[C@@H]([C@@H](C)CC)C(=O)N(C)[C@@H](C)C(=O)N2CC[C@H]2C(=O)N1C", "note": "[Compound 1646] ([NMeL]I[NMeA][Aze][NMeS](Propyl)[Sar][hPhe(3-Cl-4-CF3)]P[Ac5c][NMeV][NMeD]-Piperidide; lactam N-11)", "IC50": "0.1 to 0.5"},
      {"compound": "CC[C@H](C)[C@@H]1NC(=O)[C@H](CC(C)C)N(C)C(=O)C[C@@H](C)N(C)C(=O)[C@H](C(C)C)N(C)C(=O)C2(CCCC2)NC(=O)[C@@H]2CCCN2C(=O)[C@H](CCc2ccc(C(F)(F)F)c(Cl)c2)NC(=O)CN(C)C(=O)[C@H](CC2CCCCC2)N(C)C(=O)[C@@H]2CCN2C(=O)CN(C)C1=O", "note": "[Compound 1648] (cyclo([Ac5c][NMeV][NMedβ3hAla][NMeL]I[Sar][Aze][NMeCha][Sar][hPhe(3-Cl-4-CF3)]P))", "IC50": "0.1 to 0.5"},
      {"compound": "CC[C@H](C)[C@@H]1NC(=O)[C@H](CC(C)C)N(C)C(=O)C[C@@H](C(=O)N(C)C)N(C)C(=O)[C@H](C(C)C)N(C)C(=O)C2(CCCC2)NC(=O)[C@@H]2CCCN2C(=O)[C@H](CCc2ccc(C(F)(F)F)c(Cl)c2)NC(=O)CN(C)C(=O)[C@H](Cc2ccc(C)cc2)N(C)C(=O)[C@@H]2CCN2C(=O)[C@H](C)N(C)C1=O", "note": "[Compound 1653] ([NMeL]I[NMeA][Aze][NMePhe(4-Me)][Sar][hPhe(3-Cl-4-CF3)]P[Ac5c][NMeV][NMeD]-NMe2; lactam N-11)", "IC50": "0.05 to 0.1"},
      {"compound": "CC[C@H](C)[C@@H]1NC(=O)[C@H](CC(C)C)N(C)C(=O)C[C@@H](C)NC(=O)[C@H]([C@@H](C)CC)N(C)C(=O)C2(CCCC2)NC(=O)[C@@H]2CCCN2C(=O)[C@H](CCc2ccc(C(F)(F)F)c(Cl)c2)NC(=O)CN(C)C(=O)[C@H](CC2CCCCC2)N(C)C(=O)[C@@H]2CCN2C(=O)[C@H](C)N(C)C1=O", "note": "[Compound 1654] (cyclo([Ac5c][NMeI][d(β3hA)][NMeL]I[NMeA][Aze][NMeCha][Sar][hPhe(3-Cl-4-CF3)]P))", "IC50": "0.05 to 0.1"}
    ]}
  ]
}
